Test results: ChEMBL document CHEMBL3044631, “Synthesis of 2-[4,5-dimethyl-1-(phenylamino)-1H-imidazol-2-ylthio]-N-(thiazole-2-yl)acetamide derivatives and their anticancer activities” (2013)

Legend:
Type in all cases: functional
HOP-62 = experiment: Anticancer activity against Homo sapiens (human) HOP62 cells after 48 hr by SRB assay; conditions: HOP-62, 48 h
DU-145 = experiment: Anticancer activity against Homo sapiens (human) DU145 cells after 48 hr by SRB assay; conditions: DU-145, 48 h
786-0 = experiment: Anticancer activity against Homo sapiens (human) 786-0 cells after 48 hr by SRB assay; conditions: 786-0, 48 h
UO-31 = experiment: Anticancer activity against Homo sapiens (human) UO31 cells after 48 hr by SRB assay; conditions: UO-31, 48 h
EKVX = experiment: Anticancer activity against Homo sapiens (human) EKVX cells after 48 hr by SRB assay
HCT-15 = experiment: Anticancer activity against Homo sapiens (human) HCT15 cells after 48 hr by SRB assay; conditions: HCT-15, 48 h
Malme-3M = experiment: Anticancer activity against Homo sapiens (human) MALME-3M cells after 48 hr by SRB assay
TK-10 = experiment: Anticancer activity against Homo sapiens (human) TK10 cells after 48 hr by SRB assay; conditions: TK-10, 48 h
SK-OV-3 = experiment: Anticancer activity against Homo sapiens (human) SKOV3 cells after 48 hr by SRB assay; conditions: SK-OV-3, 48 h
NCI-H23 = experiment: Anticancer activity against Homo sapiens (human) NCI-H23 cells after 48 hr by SRB assay; conditions: NCI-H23, 48 h
SK-MEL-2 = experiment: Anticancer activity against Homo sapiens (human) SK-MEL-2 cells after 48 hr by SRB assay; conditions: SK-MEL-2, 48 h
MDA-MB-468 = experiment: Anticancer activity against Homo sapiens (human) MDA-MB-468 cells after 48 hr by SRB assay; conditions: MDA-MB-468, 48 h
Hs-578T = experiment: Anticancer activity against Homo sapiens (human) Hs 578T cells after 48 hr by SRB assay
BT-549 = experiment: Anticancer activity against Homo sapiens (human) BT549 cells after 48 hr by SRB assay; conditions: BT-549, 48 h
IGROV-1 = experiment: Anticancer activity against Homo sapiens (human) IGROV1 cells after 48 hr by SRB assay; conditions: IGROV-1, 48 h
UACC-257 = experiment: Anticancer activity against Homo sapiens (human) UACC257 cells after 48 hr by SRB assay; conditions: UACC-257, 48 h
MDA-MB-231 = experiment: Anticancer activity against Homo sapiens (human) MDA-MB-231/ATCC cells after 48 hr by SRB assay; conditions: MDA-MB-231, 48 h
COLO 205 = experiment: Anticancer activity against Homo sapiens (human) COLO205 cells after 48 hr by SRB assay; conditions: COLO 205, 48 h
A498 = experiment: Anticancer activity against Homo sapiens (human) A498 cells after 48 hr by SRB assay; conditions: A498, 48 h
HT-29 = experiment: Anticancer activity against Homo sapiens (human) HT-29 cells after 48 hr by SRB assay; conditions: HT-29, 48 h
HCT-116 = experiment: Anticancer activity against Homo sapiens (human) HCT116 cells after 48 hr by SRB assay; conditions: HCT-116, 48 h
LOX IMVI = experiment: Anticancer activity against Homo sapiens (human) LOXIMVI cells after 48 hr by SRB assay
NCI-H522 = experiment: Anticancer activity against Homo sapiens (human) NCI-H522 cells after 48 hr by SRB assay; conditions: NCI-H522, 48 h
NCI-H322M = experiment: Anticancer activity against Homo sapiens (human) NCI-H322M cells after 48 hr by SRB assay
OVCAR-8 = experiment: Anticancer activity against Homo sapiens (human) OVCAR8 cells after 48 hr by SRB assay; conditions: OVCAR-8, 48 h
A549 = experiment: Anticancer activity against Homo sapiens (human) A549/ATCC cells after 48 hr by SRB assay; conditions: A549, 48 h
ACHN = experiment: Anticancer activity against Homo sapiens (human) ACHN cells after 48 hr by SRB assay
MOLT-4 = experiment: Anticancer activity against Homo sapiens (human) MOLT4 cells after 48 hr by SRB assay; conditions: MOLT-4, 48 h
NCI-H460 = experiment: Anticancer activity against Homo sapiens (human) NCI-H460 cells after 48 hr by SRB assay; conditions: NCI-H460, 48 h
K562 = experiment: Anticancer activity against Homo sapiens (human) K562 cells after 48 hr by SRB assay; conditions: K562, 48 h
SK-MEL-5 = experiment: Anticancer activity against Homo sapiens (human) SK-MEL-5 cells after 48 hr by SRB assay; conditions: SK-MEL-5, 48 h
[1] = read-out: LC50 (the source's name)

Cc1ccc(Nn2c(SCC(=O)Nc3nc(-c4ccccc4)cs3)nc(C)c2C)cc1
GI50 (HOP-62): 18.4 µM
LC50 (HOP-62): > 100 µM
GI50 (DU-145): 9.75 µM
LC50 (concentration killing 50% of cells) (DU-145): > 100 µM
TGI (DU-145): 64.6 µM
GI50 (786-0): 4.41 µM
LC50 (lethal concentration 50) (786-0): > 100 µM
TGI (786-0): > 100 µM
GI50 (UO-31): 2.89 µM
TGI (UO-31): > 100 µM
CC50 (UO-31; [1]): > 100 µM
GI50 (EKVX): 1.39 µM
TGI (EKVX): 5.61 µM
CC50 (EKVX; [1]): > 100 µM
GI50 (HCT-15): 5.17 µM
TGI (HCT-15): > 100 µM
CC50 (HCT-15; [1]): > 100 µM
GI50 (Malme-3M): 2.48 µM
TGI (Malme-3M): 13.6 µM
CC50 (Malme-3M; [1]): > 100 µM
GI50 (TK-10): 18.9 µM
LC50 (50% lethal concentration) (TK-10): > 100 µM
TGI (TK-10): > 100 µM
GI50 (SK-OV-3): 10.6 µM
LC50 (50% lethal concentration) (SK-OV-3): > 100 µM
TGI (SK-OV-3): > 100 µM
GI50 (NCI-H23): 3.42 µM
TGI (NCI-H23): > 100 µM
CC50 (NCI-H23; [1]): > 100 µM
GI50 (SK-MEL-2): 7.58 µM
LC50 (concentration killing 50% of cells) (SK-MEL-2): > 100 µM
TGI (SK-MEL-2): 35.3 µM
GI50 (MDA-MB-468): 1.7 µM
LC50 (MDA-MB-468): > 100 µM
TGI (MDA-MB-468): 6.67 µM
GI50 (Hs-578T): 3.41 µM
TGI (Hs-578T): > 100 µM
CC50 (Hs-578T; [1]): > 100 µM
GI50 (BT-549): 3.18 µM
LC50 (BT-549): 94.7 µM
TGI (BT-549): 14.1 µM
GI50 (IGROV-1): 4.59 µM
LC50 (concentration killing 50% of cells) (IGROV-1): > 100 µM
TGI (IGROV-1): > 100 µM
GI50 (UACC-257): 2.12 µM
LC50 (UACC-257): > 100 µM
TGI (UACC-257): 9.29 µM
GI50 (MDA-MB-231): 3.34 µM
TGI (MDA-MB-231): > 100 µM
CC50 (MDA-MB-231; [1]): > 100 µM
GI50 (COLO 205): 3.98 µM
TGI (COLO 205): 34.4 µM
CC50 (COLO 205; [1]): > 100 µM
GI50 (A498): 17.4 µM
LC50 (A498): > 100 µM
TGI (A498): > 100 µM
GI50 (HT-29): 4.37 µM
LC50 (HT-29): > 100 µM
TGI (HT-29): 28.2 µM
GI50 (HCT-116): 2.82 µM
LC50 (HCT-116): > 100 µM
TGI (HCT-116): 26.5 µM
GI50 (LOX IMVI): 3.32 µM
LC50 (50% lethal concentration) (LOX IMVI): > 100 µM
TGI (LOX IMVI): 19.3 µM
GI50 (NCI-H522): 2.97 µM
LC50 (50% lethal concentration) (NCI-H522): > 100 µM
TGI (NCI-H522): 86.8 µM
GI50 (NCI-H322M): 10.2 µM
TGI (NCI-H322M): > 100 µM
CC50 (NCI-H322M; [1]): > 100 µM
GI50 (OVCAR-8): 3.79 µM
TGI (OVCAR-8): > 100 µM
CC50 (OVCAR-8; [1]): > 100 µM
GI50 (A549): 3.03 µM
LC50 (A549): > 100 µM
TGI (A549): > 100 µM
GI50 (ACHN): 4.06 µM
LC50 (concentration killing 50% of cells) (ACHN): > 100 µM
TGI (ACHN): 62.9 µM
GI50 (MOLT-4): 3.46 µM
LC50 (50% lethal concentration) (MOLT-4): > 100 µM
TGI (MOLT-4): > 100 µM
GI50 (NCI-H460): 3.88 µM
LC50 (NCI-H460): 83.3 µM
TGI (NCI-H460): 16.5 µM
GI50 (K562): 3.62 µM
TGI (K562): > 100 µM
CC50 (K562; [1]): > 100 µM
GI50 (SK-MEL-5): 2 µM
LC50 (concentration killing 50% of cells) (SK-MEL-5): 23.8 µM
TGI (SK-MEL-5): 5.72 µM
